BindingDB's records for doi:10.1021/jm0204441 (The Danish University of Pharmaceutical Sciences, 2003)

Experiment: Electrophysiological data on Xenopus oocytes, expressing homomeric kainate receptor (GluR5)

## CC(C)(C)c1s[nH]c(=O)c1C[C@H](N)C(=O)O [2-Amino-3-(5-tert-butyl-3-hydroxy-isothiazol-4-yl)-propionic acid]
  EC50: 100 nM
